Experiments:
[1] = system: B16-BL6 murine melanoma cells; experiment: Antimetastatic activity: pulmonary colonization by melanoma cells inoculated in mice; type: in vivo, female C57BL/6 mice
Excerpt: The capacity of the tripeptide […] of inhibiting the pulmonary colonization by B16-BL6 murine melanoma cells inoculated in female C57BL/6 mice having an average body weight of 20 g (10 animals per group) has been evaluated. […] Fourteen days later, the animals have been sacrificed, the lungs have been withdrawn and examined after formalin fixation for the presence of surface melanoma colonies. A group of control animals has only been treated with the tumour cell suspension.

[2] = system: PHA-stimulated human T lymphocytes; experiment: RNA synthesis in PHA-stimulated human T lymphocytes in vitro (3H-uridine); type: cell-based; conditions: for RNA synthesis, 3H-uridine c.p.m. (mean): control 3835
Protocol: Human T lymphocytes, incubated in vitro for 24 hours in presence of 0.5% phytohemagglutinin (PHA) and different concentrations of the tripeptides under examination, have been analyzed for RNA synthesis (cell activation) by means of 3H-uridine labelling.

Human T lymphocytes [3] = experiment: Effect on cell cycle (propidium iodide, flow cytometer); type: cell-based; conditions: 1 μg/ml, 72 hours with PHA
Protocol: Human T lymphocytes have been incubated for 72 hours in presence of PHA and the tripeptides under examination (1 μg/ml). DNA has then been stained with propidium iodide and cells have been analyzed with a flow cytometer.

Human T lymphocytes [4] = experiment: Stimulation of lymphokine production in vitro: BCGF activity of supernatants; type: cell-based
Protocol: (§1) Human T lymphocytes have been incubated with PHA and with or without the peptides under examination for 24 hours (in the case of IL-2) or 72 hours (in the case of BCGF).
(§2) The supernatants have been collected, filtered (0.2 μm) and assayed for the presence of IL-2 or BCGF activity, by adding them at different concentrations to fresh T lymphocytes or to long term cultured B cells. The proliferating activity of these cells, dependent on the presence of the respective growth factor, has been evaluated through 3H-thymidine incorporation.

Human T lymphocytes [5] = experiment: Stimulation of lymphokine production in vitro: TCGF (IL-2) activity of supernatants; type: cell-based
Protocol: as §1, §2

[6] = system: pure human T lymphocytes, without macrophages; experiment: Lymphokine production by pure human T lymphocytes without macrophages (+IL-1): BCGF activity; type: cell-based
Excerpt: as §2
(§3) The lymphokine production by human T lymphocytes purified through […] on nylon wool column has been evaluated with the same methods as in the previous experiment.
(§4) In order to obviate the lack of macrophages, recombinant IL-1 β (Genzyme) has been added at the concentration of 25 Units/ml.

[7] = system: pure human T lymphocytes, without macrophages; experiment: Lymphokine production by pure human T lymphocytes without macrophages (+IL-1): TCGF activity; type: cell-based
Excerpt: as §2, §3, §4

[8] = Toxicological trials: LD50 in mice; conditions: mouse, in vivo, ip; i.p. in mice
[9] = 1 mcg/ml, 3.125% of supernatant
[10] = 10 mcg/ml, 3.125% of supernatant
[11] = 10 mcg/ml, 6.25% of supernatant
[12] = 10 mcg/ml, 12.5% of supernatant

## N=C(N)NCCC[C@H](N)C(=O)NCC(=O)N[C@@H](CC(=O)O)C(=O)O [ARG--GLY--ASP, L-Arginyl-glycyl-L-aspartic acid]
[1]; 3 mg/mouse i.v. together with 2×10^5 melanoma cells, lungs after 14 days, controls above 500/mouse
  mean number of metastases: 173 /mouse
[1]; 3 mg/mouse i.v., 7×10^4 tumour cells
  change of mean number of metastases vs controls: -69%
[1]; 3 mg/mouse i.v., 7×10^4 tumour cells, controls 21.6
  mean number of metastases: 6.8
[2]; 24 hours, 0.5% PHA
  PHA-induced human T lymphocyte activation (RNA synthesis): able to increase
[2]; peptide 0.0001 mcg/ml
  RNA synthesis Δ %: -3%
[2]; peptide 0.0001 mcg/ml, 24 hours, 0.5% PHA
  RNA synthesis, 3H-uridine c.p.m. (mean): 3703 c.p.m.
[2]; peptide 0.001 mcg/ml
  RNA synthesis Δ %: -2%
[2]; peptide 0.001 mcg/ml, 24 hours, 0.5% PHA
  RNA synthesis, 3H-uridine c.p.m. (mean): 3741 c.p.m.
[2]; peptide 0.01 mcg/ml
  RNA synthesis Δ %: +11%
[2]; peptide 0.01 mcg/ml, 24 hours, 0.5% PHA
  RNA synthesis, 3H-uridine c.p.m. (mean): 4259 c.p.m.
[2]; peptide 0.1 mcg/ml
  RNA synthesis Δ %: +18%
[2]; peptide 0.1 mcg/ml, 24 hours, 0.5% PHA
  RNA synthesis, 3H-uridine c.p.m. (mean): 4516 c.p.m.
[2]; peptide 1 mcg/ml
  RNA synthesis Δ %: +6%
[2]; peptide 1 mcg/ml, 24 hours, 0.5% PHA
  RNA synthesis, 3H-uridine c.p.m. (mean): 4068 c.p.m.
[2]; peptide 10 mcg/ml
  RNA synthesis Δ %: +9%
[2]; peptide 10 mcg/ml, 24 hours, 0.5% PHA
  RNA synthesis, 3H-uridine c.p.m. (mean): 4199 c.p.m.
Human T lymphocytes [3]
  G2 + M % cells, difference from T + PHA: +6.12
  Go-Gl % cells, difference from T + PHA: -5.67
  S % cells, difference from T + PHA: -1.15
Human T lymphocytes [3]; T + PHA 6.02
  CELL PHASES G2 + M % CELLS: 12.14%
Human T lymphocytes [3]; T + PHA 30.61
  CELL PHASES S % CELLS: 29.46%
Human T lymphocytes [3]; T + PHA 63.36
  CELL PHASES Go-Gl % CELLS: 57.69%
Human T lymphocytes [4]; 3.125% of supernatant
  BCGF activity Δ %: +257%
Human T lymphocytes [4]; 3.125% of supernatant, T + PHA 1345
  BCGF ACTIVITY (mean): 4800 COUNTS PER MINUTE
Human T lymphocytes [4]; 6.25% of supernatant
  BCGF activity Δ %: +299%
Human T lymphocytes [4]; 6.25% of supernatant, T + PHA 2156
  BCGF ACTIVITY (mean): 8611 COUNTS PER MINUTE
Human T lymphocytes [4]; 12.5% of supernatant
  BCGF activity Δ %: +206%
Human T lymphocytes [4]; 12.5% of supernatant, T + PHA 5402
  BCGF ACTIVITY (mean): 16550 COUNTS PER MINUTE
Human T lymphocytes [4]; 25% of supernatant
  BCGF activity Δ %: +24%
Human T lymphocytes [4]; 25% of supernatant, T + PHA 15030
  BCGF ACTIVITY (mean): 18645 COUNTS PER MINUTE
Human T lymphocytes [4]; 50% of supernatant
  BCGF activity Δ %: +19%
Human T lymphocytes [4]; 50% of supernatant, T + PHA 17297
  BCGF ACTIVITY (mean): 20508 COUNTS PER MINUTE
Human T lymphocytes [4]; IL-2 and BCGF, slightly lower than Arg-Lys-Glu, higher than Arg-Lys-Asp
  stimulation of the growth factor production: marked effect of stimulation
Human T lymphocytes [5]; 3.125% of supernatant
  TCGF activity Δ %: +107%
Human T lymphocytes [5]; 3.125% of supernatant, T + PHA 1564
  TCGF ACTIVITY (mean): 3245 COUNTS PER MINUTE
Human T lymphocytes [5]; 6.25% of supernatant
  TCGF activity Δ %: +224%
Human T lymphocytes [5]; 6.25% of supernatant, T + PHA 2622
  TCGF ACTIVITY (mean): 8496 COUNTS PER MINUTE
Human T lymphocytes [5]; 12.5% of supernatant
  TCGF activity Δ %: +227%
Human T lymphocytes [5]; 12.5% of supernatant, T + PHA 4012
  TCGF ACTIVITY (mean): 13113 COUNTS PER MINUTE
Human T lymphocytes [5]; 25% of supernatant
  TCGF activity Δ %: +105%
Human T lymphocytes [5]; 25% of supernatant, T + PHA 7824
  TCGF ACTIVITY (mean): 16609 COUNTS PER MINUTE
Human T lymphocytes [5]; 50% of supernatant
  TCGF activity Δ %: +29%
Human T lymphocytes [5]; 50% of supernatant, T + PHA 14086
  TCGF ACTIVITY (mean): 18167 COUNTS PER MINUTE
[6]; [9]
  BCGF activity Δ %: +94%
[6]; 1 mcg/ml, 3.125% of supernatant, T + PHA + IL-1 318
  BCGF ACTIVITY c.p.m.: 618 c.p.m.
[6]; 1 mcg/ml, 6.25% of supernatant
  BCGF activity Δ %: +9%
[6]; 1 mcg/ml, 6.25% of supernatant, T + PHA + IL-1 582
  BCGF ACTIVITY c.p.m.: 634 c.p.m.
[6]; 1 mcg/ml, 12.5% of supernatant
  BCGF activity Δ %: +141%
[6]; 1 mcg/ml, 12.5% of supernatant, T + PHA + IL-1 1104
  BCGF ACTIVITY c.p.m.: 2663 c.p.m.
[6]; 1 mcg/ml, 25% of supernatant
  BCGF activity Δ %: +106%
[6]; 1 mcg/ml, 25% of supernatant, T + PHA + IL-1 2507
  BCGF ACTIVITY c.p.m.: 5172 c.p.m.
[6]; 1 mcg/ml, 50% of supernatant
  BCGF activity Δ %: +95%
[6]; 1 mcg/ml, 50% of supernatant, T + PHA + IL-1 5056
  BCGF ACTIVITY c.p.m.: 9837 c.p.m.
[6]; [10]
  BCGF activity Δ %: +147%
[6]; 10 mcg/ml, 3.125% of supernatant, T + PHA + IL-1 318
  BCGF ACTIVITY c.p.m.: 784 c.p.m.
[6]; [11]
  BCGF activity Δ %: +49%
[6]; 10 mcg/ml, 6.25% of supernatant, T + PHA + IL-1 582
  BCGF ACTIVITY c.p.m.: 866 c.p.m.
[6]; [12]
  BCGF activity Δ %: +171%
[6]; 10 mcg/ml, 12.5% of supernatant, T + PHA + IL-1 1104
  BCGF ACTIVITY c.p.m.: 2997 c.p.m.
[6]; 10 mcg/ml, 25% of supernatant
  BCGF activity Δ %: +173%
[6]; 10 mcg/ml, 25% of supernatant, T + PHA + IL-1 2507
  BCGF ACTIVITY c.p.m.: 6849 c.p.m.
[6]; 10 mcg/ml, 50% of supernatant
  BCGF activity Δ %: +125%
[6]; 10 mcg/ml, 50% of supernatant, T + PHA + IL-1 5056
  BCGF ACTIVITY c.p.m.: 11364 c.p.m.
[6]; both for IL-2 and BCGF, IL-1 β 25 Units/ml
  effect on lymphokine production by pure T lymphocytes: comparable with that of the other reference compounds
[7]; [9]
  TCGF activity Δ %: +17%
[7]; 1 mcg/ml, 3.125% of supernatant, T + PHA + IL-1 1696
  TCGF ACTIVITY c.p.m.: 1984 c.p.m.
[7]; 1 mcg/ml, 6.25% of supernatant
  TCGF activity Δ %: +145%
[7]; 1 mcg/ml, 6.25% of supernatant, T + PHA + IL-1 2817
  TCGF ACTIVITY c.p.m.: 6893 c.p.m.
[7]; 1 mcg/ml, 12.5% of supernatant
  TCGF activity Δ %: +259%
[7]; 1 mcg/ml, 12.5% of supernatant, T + PHA + IL-1 3663
  TCGF ACTIVITY c.p.m.: 13147 c.p.m.
[7]; 1 mcg/ml, 25% of supernatant
  TCGF activity Δ %: +209%
[7]; 1 mcg/ml, 25% of supernatant, T + PHA + IL-1 4812
  TCGF ACTIVITY c.p.m.: 14862 c.p.m.
[7]; 1 mcg/ml, 50% of supernatant
  TCGF activity Δ %: +149%
[7]; 1 mcg/ml, 50% of supernatant, T + PHA + IL-1 6297
  TCGF ACTIVITY c.p.m.: 15654 c.p.m.
[7]; [10]
  TCGF activity Δ %: +2%
[7]; 10 mcg/ml, 3.125% of supernatant, T + PHA + IL-1 1696
  TCGF ACTIVITY c.p.m.: 1736 c.p.m.
[7]; [11]
  TCGF activity Δ %: +125%
[7]; 10 mcg/ml, 6.25% of supernatant, T + PHA + IL-1 2817
  TCGF ACTIVITY c.p.m.: 6342 c.p.m.
[7]; [12]
  TCGF activity Δ %: +279%
[7]; 10 mcg/ml, 12.5% of supernatant, T + PHA + IL-1 3663
  TCGF ACTIVITY c.p.m.: 13874 c.p.m.
[7]; 10 mcg/ml, 25% of supernatant
  TCGF activity Δ %: +128%
[7]; 10 mcg/ml, 25% of supernatant, T + PHA + IL-1 4812
  TCGF ACTIVITY c.p.m.: 10968 c.p.m.
[7]; 10 mcg/ml, 50% of supernatant
  TCGF activity Δ %: +113%
[7]; 10 mcg/ml, 50% of supernatant, T + PHA + IL-1 6297
  TCGF ACTIVITY c.p.m.: 13427 c.p.m.
[8]
  LD50: > 1000 mg/kg

— patent US4929601A, “Tripeptides useful as immunostimulants as well as in the prevention of metastases” (Ellem Industria Farmaceutica, S.p.A., priority 1987, dated 1990)
